# In patent US6462055B2, “Alpha-methylbenzyl-containing thiourea inhibitors of herpes viruses containing a phenylenediamine group” (Wyeth, priority 1998, dated 2002):
# Experiments:
# [1] = tested on: HCMV recombinant mutant virus (RV145); assay: microbe, parasite or virus in culture; type: cell-based, human cytomegalovirus; settings: HCMV
# How it was run: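 Read-out is beta-glucuronidase activity in cell lysates 96 h after infection, measured colorimetrically or fluorometrically. Reporter virus RV145 expresses the enzyme under a viral promoter in human foreskin fibroblasts treated with inhibitor.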
# [2] = tested on: VZV strain Ellen; assay: VZV Antiviral (ELISA) Assay in human foreskin fibroblast cells; type: cell-based, varicella-zoster virus
# How it was run: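 First, fibroblasts are infected at multiplicity below 0.1 and kept overnight. The harvested cell mixture then goes onto compound-containing wells for three days at 37° C. Finally, cells are fixed and viral gpII is measured by fluorogenic ELISA.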
# [3] = tested on: HSV-1; assay: HSV Antiviral (ELISA) Assay in Vero cells; type: cell-based, herpes simplex virus type 1; settings: HSV-1, Vero cells
# How it was run: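 Viral replication was quantified by cell-fixed ELISA for HSV glycoprotein D, using a β-galactosidase reporter and fluorogenic umbelliferyl substrate, about 24 h after HSV-1 infection (MOI 0.006) of Vero cells. Compounds, at several concentrations, were added 30 min pre-infection. IC50 was derived from fluorescence relative to the compound-free signal.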
SMILES,IC50 ug/ml HCMV [1] [µg/mL],IC50 (ug/ml) VZV [2] [µg/mL],% inhibition 10 ug/ml VZV [2] [%],IC50 (ug/ml) HSV [3] [µg/mL]
CN1CCC(N(C)c2ccc(NC(=S)Nc3ccc(NC(=O)c4c(F)cccc4F)cc3)cc2Cl)C1 (centres unmarked) [Example 349],1.2,4,110,5
COc1cc(OC)c(NC(=S)Nc2ccc(NC(=O)c3ccccc3F)cc2Cl)cc1Cl [Example 355],>10,>10,40,0.035
O=C(Nc1ccc(NC(=S)Nc2ccc(SC3CCCCC3)c(Cl)c2)cc1)c1ccccc1F [Example 357],9,40,44,>10
CN(C)CC(=O)Nc1ccc(NC(=S)Nc2ccc(NC(=O)c3ccccc3F)cc2)cc1Cl [Example 362],>10,>10,8,>10
O=C(CN1CCCCC1)Nc1ccc(NC(=S)Nc2ccc(NC(=O)c3ccccc3F)cc2)cc1Cl [Example 364],>10,>15,73,>10
O=C(CN1CCOCC1)Nc1ccc(NC(=S)Nc2ccc(NC(=O)c3ccccc3F)cc2)cc1Cl [Example 367],>10,>10,20,>10
CS(=O)(=O)Nc1ccc(NC(=S)Nc2ccc(NC(=O)c3ccccc3F)cc2)cc1Cl [Example 370],>10,>10,16,>10
CN(C)CCSCC(=O)Nc1ccc(NC(=S)Nc2ccc(NC(=O)c3ccccc3F)cc2)cc1Cl [Example 373],6,>10,4,9
Cc1ccccc1C(=O)Nc1ccc(NC(=S)Nc2ccc(N(C)C3CCN(Cc4ccccc4)C3)c(Cl)c2)cc1 (centres unmarked) [Example 374],3,4,70,3
Cc1ccccc1C(=O)Nc1ccc(NC(=S)Nc2ccc(N(C)C3CCN(C)CC3)c(Cl)c2)cc1 [Example 375],1.5,7,95,5
O=C(Nc1ccc(NC(=S)Nc2ccc(Cl)c(C(F)(F)F)c2)cc1)c1c(F)cccc1F [Example 380],>10,>10,50,>10
CCSc1ccc(NC(=S)Nc2ccc(NC(=O)c3ccccc3F)cc2)cc1Cl [Example 386],2,>10,29,>10
CCCCSc1ccc(NC(=S)Nc2ccc(NC(=O)c3ccccc3F)cc2)cc1Cl [Example 387],>10,>10,26,>10
CS(=O)(=O)c1ccc(NC(=S)Nc2ccc(NC(=O)c3c(F)cccc3F)cc2)cc1Cl [Example 392],0.5,2,92,>10
CS(=O)(=O)c1ccc(NC(=S)Nc2ccc(NC(=O)c3c(F)cccc3F)cc2)cc1Cl [Example 393],0.5,>10,62,>10
Cc1ccc(NC(=S)Nc2ccc(NC(=O)c3ccccc3F)c(C)c2)cc1Cl [Example 395],3,>10,64,0.2
CCOC(=O)Nc1ccc(NC(=S)Nc2ccc(NC(=O)c3ccccc3F)cc2)cc1Cl [Example 399],1.5,>10,59,>10
Nc1ccc(NC(=S)Nc2ccc(NC(=O)c3ccccc3F)cc2)cc1Cl [Example 404],8,>10,15,0.4
O=C(CN1CCSCC1)Nc1ccc(NC(=S)Nc2ccc(NC(=O)c3ccccc3F)cc2)cc1Cl [Example 407],>10,0.7,87,4
CCN(CC)CC(=O)Nc1ccc(NC(=S)Nc2ccc(NC(=O)c3ccccc3F)cc2)cc1Cl [Example 414],>10,>15,70,6
O=C(CN1CCCC1)Nc1ccc(NC(=S)Nc2ccc(NC(=O)c3ccccc3F)cc2)cc1Cl [Example 417],>10,>10,15,6
O=C(CN1CCCCCC1)Nc1ccc(NC(=S)Nc2ccc(NC(=O)c3ccccc3F)cc2)cc1Cl [Example 423],1,0.9,87,4
CC1CCCCN1CC(=O)Nc1ccc(NC(=S)Nc2ccc(NC(=O)c3ccccc3F)cc2)cc1Cl (centres unmarked) [Example 425],0.5,>7.5,103,3
O=C(Nc1ccc(NC(=S)Nc2cccc(C(F)(F)F)c2)cc1)c1ccccc1F [Example 433],>10,>10,0,>10
Nc1ccc(Cl)cc1NC(=S)Nc1ccc(NC(=O)c2ccccc2F)cc1 [Example 437],>10,8,0,0.05
Nc1cc(Cl)cc(NC(=S)Nc2ccc(NC(=O)c3ccccc3F)cc2)c1 [Example 442],2,8,81,1
CC(O)c1cccc(NC(=S)Nc2ccc(NC(=O)c3ccccc3F)cc2)c1 (centres unmarked) [Example 448],9,>10,0,>10
CC(C)c1cccc(NC(=S)Nc2ccc(NC(=O)c3ccccc3F)cc2)c1 [Example 452],2,1,75,4
CN(C)c1cccc(NC(=S)Nc2ccc(NC(=O)c3ccccc3F)cc2)c1 [Example 454],4,>10,55,1.5
